# Assay results as given in ChEMBL document CHEMBL1121897, “Synthesis and antihypertensive activity of new 6-heteroaryl-3-hydrazinopyridazine derivatives” (J Med Chem, 1981).
# Tests used:
# Rattus norvegicus [1] = assay: Hypotensive activity was measured as ED20 which is the dose lowered the normal arterial pressure in anesthetized rat by 20% after iv administration; assay type: functional, Artery
# Rattus norvegicus [2] = assay: Relative potency of compound was measured in anesthetized rats after iv administration; assay type: functional
# Rattus norvegicus [3] = assay: Antihypertensive activity was measured as ED20 which is the dose lowered the normal arterial pressure in conscious SH rats by 20% after po administration; assay type: functional, Artery
# [4] = Acute toxicity was measured as LD50 in mice after ip administration; assay type: organism-based; conditions: mouse, in vivo
# Rattus norvegicus [5] = assay: Relative potency of compound was measured in conscious SH rats after po administration; assay type: functional
# Rattus norvegicus [6] = assay: Hypotensive activity was measured as ED20 which is the dose lowered the normal arterial pressure in anesthetized rats by 20% after iv administration.; assay type: functional, Artery
# Rattus norvegicus [7] = assay: Relative potency of compound was measured in anesthetized rats after iv administration.; assay type: functional
# Rattus norvegicus [8] = assay: Hypotensive activity was measured as ED20 which is the dose lowered the normal arterial pressure in anesthetized rats by 20% after iv administration; assay type: functional, Artery
# Rattus norvegicus [9] = assay: Relative potency of compound was measured in anesthetized rats after ip administration; assay type: functional
# Rattus norvegicus [10] = assay: Relative potency of compound was measured in conscious SH rats after po administration.; assay type: functional
# Rattus norvegicus [11] = assay: Antihypertensive activity was measured as ED20 which is the dose lowered the normal arterial pressure in conscious SH rats by 20% after po administration.; assay type: functional, Artery
# [12] = Acute toxicity was measured as LD50 in mice after ip administration.; assay type: organism-based; conditions: mouse, in vivo
# Rattus norvegicus [13] = assay: Hypotensive activity was measured as ED20 which is the dose lowered the normal arterial pressure in anesthetized rats by 20% after ip administration.; assay type: functional, Artery
# Rattus norvegicus [14] = assay: Relative potency of compound was measured in anesthetized rats after ip administration.; assay type: functional
smiles,measurement,setting,value
Cl.NNc1ccc(-n2cccc2)nn1,ED20,Rattus norvegicus [1],0.423 µM/kg
same,Relative potency,Rattus norvegicus [2],1.06
same,ED20,Rattus norvegicus [3],40.1 µM/kg
same,LD50,[4],389 µmol/kg
same,Relative potency,Rattus norvegicus [5],0.9
CC(C)=NNc1ccc(-n2cccc2)nn1.Cl,ED20,Rattus norvegicus [6],4.65 µM/kg
same,Relative potency,Rattus norvegicus [7],0.1
Cc1ccc(C)n1-c1ccc(NN)nn1.Cl,ED20,Rattus norvegicus [8],8.02 µM/kg
same,Relative potency,Rattus norvegicus [9],0.06
CC(C)=C/C(C)=N\Nc1ccc(-n2cccc2)nn1.Cl,ED20,Rattus norvegicus [6],1.77 µM/kg
same,Relative potency,Rattus norvegicus [7],0.25
NNc1ccc(-c2ccc(Cl)s2)nn1,ED20,Rattus norvegicus [8],9.51 µM/kg
same,Relative potency,Rattus norvegicus [9],0.19
CCc1nccn1-c1ccc(NN=C(C)C)nn1,ED20,Rattus norvegicus [6],0.247 µM/kg
same,Relative potency,Rattus norvegicus [10],3.54
same,ED20,Rattus norvegicus [11],10.2 µM/kg
same,LD50,[12],508 µmol/kg
same,Relative potency,Rattus norvegicus [7],1.82
NNc1ccc(-n2c3ccccc3c3ccccc32)nn1,Relative potency,Rattus norvegicus [9],<0.11
NNc1ccc(-c2cccs2)nn1,ED20,Rattus norvegicus [8],0.41 µM/kg
same,LD50,[4],521 µmol/kg
same,Relative potency,Rattus norvegicus [9],1.08
Cc1nccn1-c1ccc(NN)nn1,ED20,Rattus norvegicus [8],0.163 µM/kg
same,ED20,Rattus norvegicus [3],7.42 µM/kg
same,LD50,[4],1020 µmol/kg
same,Relative potency,Rattus norvegicus [5],4.88
same,Relative potency,Rattus norvegicus [9],2.75
NNc1ccc(-n2ccnc2)nn1,ED20,Rattus norvegicus [8],2.64 µM/kg
same,LD50,[4],853 µmol/kg
same,Relative potency,Rattus norvegicus [9],0.17
CCc1nccn1-c1ccc(NN)nn1,ED20,Rattus norvegicus [8],0.313 µM/kg
same,ED20,Rattus norvegicus [3],14.3 µM/kg
same,LD50,[4],765 µmol/kg
same,Relative potency,Rattus norvegicus [5],2.52
same,Relative potency,Rattus norvegicus [9],1.43
NNc1ccc(-n2cncn2)nn1,LD50,[4],262 µmol/kg
same,Relative potency,Rattus norvegicus [9],0.17
NNc1ccc(-n2ccc3ccccc32)nn1,ED20,Rattus norvegicus [8],2.06 µM/kg
same,LD50,[4],206 µmol/kg
same,Relative potency,Rattus norvegicus [9],0.22
NNc1ccc(-n2cccn2)nn1,ED20,Rattus norvegicus [8],0.83 µM/kg
same,Relative potency,Rattus norvegicus [10],1.32
same,ED20,Rattus norvegicus [3],27.3 µM/kg
same,LD50,[4],387 µmol/kg
NNc1ccc(-n2cccc2)[n+]([O-])n1,ED20,Rattus norvegicus [13],>5.24 µM/kg
same,Relative potency,Rattus norvegicus [14],<0.34
CC(C)=NNc1ccc(-n2ccnc2C)nn1,ED20,Rattus norvegicus [6],0.242 µM/kg
same,Relative potency,Rattus norvegicus [10],3.37
same,ED20,Rattus norvegicus [11],10.7 µM/kg
same,LD50,[12],430 µmol/kg
same,Relative potency,Rattus norvegicus [7],1.86
N/N=c1\[nH][nH]/c(=N\N)c2ccccc12 [DIHYDRALAZINE],ED20,Rattus norvegicus [6],0.449 µM/kg
same,Relative potency,Rattus norvegicus [10],1
same,ED20,Rattus norvegicus [13],1.78 µM/kg
same,ED20,Rattus norvegicus [11],36.1 µM/kg
same,LD50,[12],1080 µmol/kg
same,Relative potency,Rattus norvegicus [7],1
